Measurements taken from US10597388B2, “Pyridazinone herbicides” (FMC CORPORATION, priority 2014, dated 2020).

Columns and labels:
Assay in all cases: Test D controlled growth environment herbicide test, pre- and postemergence
Format in all cases: in vivo
[1] = tested on: windgrass (Apera spica-venti)
Text: (§1) Seeds of plant species selected from bluegrass (annual bluegrass, Poa annua), blackgrass (Alopecurus myosuroides), Canada thistle (Cirsium arvense), canarygrass (Phalaris minor), chickweed (common chickweed, Stellaria media), geranium, cutleaf (cutleaf geranium, Geranium dissectum), galium (catchweed bedstraw, Galium aparine), bromegrass, downy (downy bromegrass, Bromus tectorum), field poppy (Papaver rhoeas), field violet (Viola arvensis), foxtail, green (green foxtail, Setaria viridis), deadnettle (henbit deadnettle, Lamium amplexicaule), ryegrass, Italian (Italian ryegrass, Lolium multiflorum), kochia (Kochia scoparia), lambsquarters (Chenopodium album), oilseed rape (Brassica napus), pigweed (Amaranthus retroflexus), chamomile (scentless chamomile, Matricaria inodora), Russian thistle (Salsola kali), speedwell (bird's-eye speedwell, Veronica persica), barley, spring (spring barley, Hordeum vulgare), wheat, spring (spring wheat, Triticum aestivum), buckwheat, wild (wild buckwheat, Polygonum convolvulus), mustard, wild (wild mustard, Sinapis arvensis), oat, wild (wild oat, Avena fatua), radish, wild (wild radish, Raphanus raphanistrum), windgrass (Apera spica-venti), barley, winter (winter barley, Hordeum vulgare), and wheat, winter (winter wheat, Triticum aestivum) were planted into a silt loam soil and treated preemergence with test chemicals formulated in a non-phytotoxic solvent mixture which included a surfactant.
(§2) At the same time, these species were planted in pots containing Redi-Earth® planting medium (Scotts Company, 14111 Scottslawn Road, Marysville, Ohio 43041) comprising spaghnum peat moss, vermiculite, wetting agent and starter nutrients and treated with postemergence applications of the test chemicals formulated in the same manner. Plants ranged in height from 2 to 18 cm (1- to 4-leaf stage). Treated plants and controls were maintained in a controlled growth environment for 14 to 21 d after which time all species were compared to controls and visually evaluated. Plant response ratings, summarized in Table D, are based on a scale of 0 to 100 where 0 is no effect and 100 is complete control. A dash (-) response means no test result.

[2] = tested on: field violet (Viola arvensis)
Text: as §1, §2

[3] = tested on: wheat, winter (winter wheat, Triticum aestivum)
Text: as §1, §2

[4] = tested on: barley, spring (spring barley, Hordeum vulgare)
Text: as §1, §2

[5] = tested on: bluegrass (annual bluegrass, Poa annua)
Text: as §1, §2

[6] = tested on: mustard, wild (wild mustard, Sinapis arvensis)
Text: as §1, §2

[7] = tested on: wheat, spring (spring wheat, Triticum aestivum)
Text: as §1, §2

kochia (Kochia scoparia) = tested on: kochia (Kochia scoparia)
Text: as §1, §2

[8] = tested on: oat, wild (wild oat, Avena fatua)
Text: as §1, §2

[9] = tested on: deadnettle (henbit deadnettle, Lamium amplexicaule)
Text: as §1, §2

[10] = tested on: pigweed (Amaranthus retroflexus)
Text: as §1, §2

[11] = tested on: foxtail, green (green foxtail, Setaria viridis)
Text: as §1, §2

[12] = tested on: Russian thistle (Salsola kali)
Text: as §1, §2

[13] = Postemergence, 31 g ai/ha, scale 0 to 100 (0 no effect, 100 complete control)
[14] = Postemergence, 125 g ai/ha, visual rating on scale 0 (no effect) to 100 (complete control), 14 to 21 d
[15] = Postemergence, 250 g ai/ha, scale 0 to 100 (0 no effect, 100 complete control)
[16] = Preemergence, 125 g ai/ha, scale 0 to 100 (0 no effect, 100 complete control)
[17] = Preemergence, 250 g ai/ha, scale 0 to 100 (0 no effect, 100 complete control)
[18] = postemergence, 62 g ai/ha, scale 0 to 100, 0 no effect, 100 complete control
[19] = Preemergence, 62 g ai/ha, scale 0 to 100 (0 no effect, 100 complete control)

CC(=O)Oc1c(C)nn(C)c(=O)c1-c1c(C)cc(C)c2ccccc12 [Compound 153]
90: Plant response rating, Field Violet [2, 18] | Plant response rating, Oat, Wild [8, 14] | Plant response rating, Deadnettle [9, 15]
35: Plant response rating, Wheat, Winter [3, 15] | Plant response rating, Kochia (kochia (Kochia scoparia); [15])
55: Plant response rating, Russian Thistle [12, 15]
15: Plant response rating, Wheat, Winter [3, 18] | Plant response rating, Barley, Spring [4, 14] | Bluegrass plant response rating [5, 13] | Plant response rating, Bluegrass [5, 18] | Plant response rating, Kochia (kochia (Kochia scoparia); [18]) | Plant response rating (scale of 0 to 100), Russian Thistle ([12]; Preemergence, 62 g ai/ha)
10: Wheat, Winter plant response rating [3, 13]
75: Plant response rating, Windgrass [1, 15] | Plant response rating (scale of 0 to 100), Windgrass ([1]; Preemergence, 31 g ai/ha) | Plant response rating, Bluegrass [5, 19] | Plant response rating, Bluegrass [5, 16] | Plant response rating, Bluegrass [5, 17] | Plant response rating, Deadnettle [9, 18] | Plant response rating, Pigweed [10, 18] | Plant response rating (scale of 0 to 100), Foxtail, Green ([11]; Preemergence, 31 g ai/ha) | Plant response rating (scale of 0 to 100), Foxtail, Green ([11]; Preemergence, 62 g ai/ha)
60: Plant response rating, Russian Thistle [12, 16]
25: Windgrass plant response rating [1, 13] | Plant response rating, Wheat, Winter [3, 14] | Plant response rating, Barley, Spring [4, 16] | Plant response rating (scale of 0 to 100), Wheat, Spring ([7]; Preemergence, 31 g ai/ha) | Plant response rating, Kochia (kochia (Kochia scoparia); [16]) | Russian Thistle plant response rating [12, 13]
95: Plant response rating, Windgrass [1, 17] | Plant response rating, Field Violet [2, 14] | Plant response rating (scale of 0 to 100), Oat, Wild ([8]; Preemergence, 62 g ai/ha)
50: Plant response rating, Wheat, Winter [3, 17] | Plant response rating, Wheat, Spring [7, 15] | Plant response rating (scale of 0 to 100), Kochia (kochia (Kochia scoparia); Preemergence, 62 g ai/ha)
40: Plant response rating, Barley, Spring [4, 17] | Plant response rating, Bluegrass [5, 15] | Plant response rating, Wheat, Spring [7, 14]
0: Plant response rating (scale of 0 to 100), Barley, Spring ([4]; Preemergence, 31 g ai/ha) | Plant response rating, Barley, Spring [4, 19] | Plant response rating (scale of 0 to 100), Russian Thistle ([12]; Preemergence, 31 g ai/ha)
85: Field Violet plant response rating [2, 13] | Plant response rating, Wheat, Spring [7, 17] | Oat, Wild plant response rating [8, 13] | Plant response rating, Oat, Wild [8, 18] | Plant response rating, Pigweed [10, 15] | Plant response rating, Foxtail, Green [11, 14] | Plant response rating, Foxtail, Green [11, 15]
98: Mustard, Wild plant response rating [6, 13] | Plant response rating, Mustard, Wild [6, 18] | Plant response rating, Oat, Wild [8, 15] | Plant response rating, Oat, Wild [8, 16] | Plant response rating, Oat, Wild [8, 17] | Plant response rating (scale of 0 to 100), Deadnettle ([9]; Preemergence, 31 g ai/ha)
80: Plant response rating (scale of 0 to 100), Windgrass ([1]; Preemergence, 62 g ai/ha) | Plant response rating, Windgrass [1, 16] | Plant response rating (scale of 0 to 100), Oat, Wild ([8]; Preemergence, 31 g ai/ha) | Plant response rating, Deadnettle [9, 14] | Pigweed plant response rating [10, 13] | Plant response rating, Pigweed [10, 14] | Foxtail, Green plant response rating [11, 13] | Plant response rating, Foxtail, Green [11, 18]
100: Plant response rating, Field Violet [2, 15] | Plant response rating (scale of 0 to 100), Field Violet ([2]; Preemergence, 31 g ai/ha) | Plant response rating (scale of 0 to 100), Field Violet ([2]; Preemergence, 62 g ai/ha) | Plant response rating, Field Violet [2, 16] | Plant response rating, Field Violet [2, 17] | Plant response rating, Mustard, Wild [6, 14] | Plant response rating, Mustard, Wild [6, 15] | Plant response rating (scale of 0 to 100), Mustard, Wild ([6]; Preemergence, 31 g ai/ha) | Plant response rating (scale of 0 to 100), Mustard, Wild ([6]; Preemergence, 62 g ai/ha) | Plant response rating, Mustard, Wild [6, 16] | Plant response rating, Mustard, Wild [6, 17] | Plant response rating (scale of 0 to 100), Deadnettle ([9]; Preemergence, 62 g ai/ha) | Plant response rating, Deadnettle [9, 16] | Plant response rating, Deadnettle [9, 17] | Plant response rating (scale of 0 to 100), Pigweed ([10]; Preemergence, 31 g ai/ha) | Plant response rating (scale of 0 to 100), Pigweed ([10]; Preemergence, 62 g ai/ha) | Plant response rating, Pigweed [10, 16] | Plant response rating, Pigweed [10, 17] | Plant response rating, Foxtail, Green [11, 16] | Plant response rating, Foxtail, Green [11, 17] | Plant response rating, Russian Thistle [12, 17]
5: Plant response rating (scale of 0 to 100), Wheat, Winter ([3]; Preemergence, 31 g ai/ha) | Barley, Spring plant response rating [4, 13] | Plant response rating, Barley, Spring [4, 18]
45: Plant response rating, Wheat, Winter [3, 16] | Plant response rating (scale of 0 to 100), Wheat, Spring ([7]; Preemergence, 62 g ai/ha) | Plant response rating, Russian Thistle [12, 14]
30: Plant response rating, Windgrass [1, 18] | Plant response rating, Barley, Spring [4, 15] | Plant response rating, Bluegrass [5, 14] | Plant response rating, Wheat, Spring [7, 18] | Plant response rating, Kochia (kochia (Kochia scoparia); [14])
70: Plant response rating (scale of 0 to 100), Bluegrass ([5]; Preemergence, 31 g ai/ha) | Plant response rating, Wheat, Spring [7, 16] | Plant response rating, Kochia (kochia (Kochia scoparia); [17]) | Deadnettle plant response rating [9, 13]
65: Plant response rating, Windgrass [1, 14]
20: Plant response rating (scale of 0 to 100), Wheat, Winter ([3]; Preemergence, 62 g ai/ha) | Wheat, Spring plant response rating [7, 13] | Kochia plant response rating (kochia (Kochia scoparia); [13]) | Plant response rating (scale of 0 to 100), Kochia (kochia (Kochia scoparia); Preemergence, 31 g ai/ha) | Plant response rating, Russian Thistle [12, 18]
